Assay results published in patent publication US20260365625A1, “DEUTERIUM ENRICHED PHENYL DERIVATIVES FOR TREATING MITOCHONDRIARELATED DISORDERS OR CONDITIONS” (Rivus Pharmaceuticals, Inc., priority 2022, published 2026).

System: HepG2 (hepatocellular carcinoma cells)
Assay: Oxygen consumption rate (OCR) in HepG2 cells, Seahorse XFe96 Extracellular Flux Analyzer
Format: cell-based
Description: HepG2 (hepatocellular carcinoma cells) were utilized in a Seahorse XFe96 Extracellular Flux Analyzer to analyze Compound (A)'s and the phenolic metabolite of the compound of formula (I)'s (“DNP”) effect on oxygen consumption rate (OCR).
30,000 HepG2 cells in MEM Alpha growth medium+10% Fetal Bovine Serum were seeded in XFe 96-well cell culture plate and incubated overnight at 37 °C with 5% CO2. The following day, cells were transferred to assay media (DMEM basal assay medium containing 10 mM Glucose 2 mM Glutamine, 1 mM Sodium Pyruvate, adjusted to pH7.4 with IN NaOH) and OCR was measured in a Seahorse XFe96 Extracellular Flux Analyzer according to the manufacturer's instructions. The effect of novel compounds on OCR was assayed in quadruplicates, at three different concentrations and in three separate experiments. The concentration that reaches half their maximum effect (EC50) and maximum OCR (Emax) increase as compared to DNP (100%) over untreated cells (0%) was calculated as an average between the three independent experiments. For data analysis GraphPad Prism was utilized.

O=[N+]([O-])c1ccc(O)c([N+](=O)[O-])c1 [DNP]
Emax (maximum OCR increase as compared to DNP (100%) over untreated cells (0%)) (OCR values normalized to 100 μM DNP (Emax=100%), average of three independent experiments): 100%
effect on oxygen consumption rate (OCR) (result in words): increased oxygen consumption rate (OCR)
EC50 (three concentrations in quadruplicates, average of three independent experiments, read-out: EC50 (concentration that reaches half their maximum effect on OCR)): 22 µM
